In US9439916B2, “Composition for decelerating the aging in the organism and for extending the life time thereof and the use of said composition” (MITOTECH SA, priority 2007, dated 2016):

Columns and labels:
Type in all cases: in vivo
SHR mice = assay: Life span of outbred SHR mice receiving SkQ1 with drinking water; settings: for animals remained alive in 707 days of the experiment: SHR mice, SkQ1 with drinking water lifelong, control 8%
Experimental: (§1) An experiment with outbred SHR mice was carried out. The mice were divided into four groups (25 animals per each group). The three groups received a certain amount of SkQ1 with drinking water throughout their lives, and the fourth (control) group received water without SkQ1. Dose of SkQ1 is given in nanomoles per kg of animal weight per day.
(V. N. Anisimov, I. N. Alimova, D. A. Baturin, I. G. Popovich, M. A. Zabezhinski, S. V. Rosenfeld, K. G. Manton, A. V. Semenchenko, A. I. Yashin (2003) Dose-dependent effect of melatonin on life span and spontaneous tumor incidence in female SHR mice. Exp Gerontol. 38, 449-461).

female SHR mice = assay: Age-related changes in estrous function of female SHR mice
Experimental: as §1
With increasing the duration of the observation period, tendency of decelerating age-related disorders in estrous function in experimental animals becomes more pronounced, which were expressed as increase in the duration of cycle and lowering the frequency of regular cycles. For example, in the 2nd cohort in 15-month-old experimental animals received SkQ1 at a dose of 0.01 nanomoles per day, the frequency of regular cycles was 94%, whereas in the control—67%.

Drosophila melanogaster = assay: Life span of fruit flies, line w1118, fed SkQ1
Experimental: Isogenous laboratory Drosophila line w^1118 in which all individuals have the same genotype was chosen for the experiments, thus eliminating the influence of genetic differences between individuals on the results of experiments. The mitochondria-targeted antioxidant SkQ1 at a concentration of 1.85 nM was tested. Stock SkQ solution was diluted in distilled water. Adult flies were administered the compound throughout their lives. Since adult flies can feed on food located on the surface, it was decided to spread the SkQ1 solution of a corresponding concentration on the surface of freshly prepared medium poured into test tubes containing the flies. Virgin females and males of line w^1118 selected during the day were placed in tubes, each tube contained five individuals (males and females separately), in standard medium. In control tubes, 100 μl of distilled water without SkQ was spread on standard medium surface; in test tubes, 100 μl of the test compound at a selected concentration was spread on standard medium surface. The number of live flies in each tube was recorded daily, once a week flies were transferred to a corresponding fresh medium. All tubes were incubated at 25° C. In each experiment, 100 individuals (20 tubes) were analyzed.

p53 (-/-) mice = assay: Life span of p53 gene knockout mice; settings: 0.1 nmoles per mouse per day (5 nM/kg/day) with drinking water
Text: Mice lacking the p53 gene (p53−/−) can not synthesize the p53 protein, so-called “guardian of the genome”, and can serve as a model of accelerated ageing and death of the organism caused by cancer [for more details, see A. A. Sablina, A. V. Budanov, G. V. Ilyinskaya, L. S. Agapova, J. E. Kravchenko, P. M. Chumakov (2005) The antioxidant function of the p53 tumor suppressor //Nature Med., 11, 1306-1313)].
Based on the previously conducted PCR analysis detecting p53−/−, p53+/− and p53+/+ mice in the progeny of heterozygous (p53+/−) animals, the two groups of mice were drawn up which received: • clean drinking water; • water supplemented with SkQ1 (0.1 nmoles of the preparation per mouse per day (5 nM/kg/day)).

[1] = test system: cat with senile generalized progressive retinal dystrophy; assay: Veterinary clinical trial, senile blindness in a cat; settings: 15 years, daily instillation of 250 nM SkQ1 solution, pH 6.5
Experimental: A) Patient—cat, breed—European Shorthair, age—15 years. Diagnosis—retinitis, papillitis, senile generalized progressive retinal dystrophy. Clinical signs—depigmentation of t. lucidum, the optic disk (OD) is violet. Retinal detachment. Vision is absent.
Treatment—daily instillation of 250 nM SkQ1 solution (in physiological solution at pH 6.5).

[2] = test system: horse with senile blindness; assay: Veterinary clinical trial, senile blindness in a horse
Text: B) Patient—horse, gelding, not thoroughbred, age—20 years. Diagnosis—senile blindness associated with degeneration of the retina and its vessels. Clinical signs—shortening and thinning of retinal vessels emanating from the optic disk, depigmentation of t. lucidum t. nigrum, thinning of the retina over the entire surface of eye fundus. As a result, Choroid blood vessels in the form of straight lines are well visualized, posterior polar senile cataract is detected. The animal cannot see during the last eight months.
Treatment—daily instillation of 250 nM SkQ1 solution (in physiological solution at pH 6.5), and since the 3rd month of treatment—2 times a day.

OXYS rats [3] = assay: Bone tissue state by X-ray densitometry (osteoporosis); settings: two 45-day courses of 50 nanomoles per kg per day, studied at 6 months
Experimental: Experiments were conducted on the two lines of rats—Wistar and OXYS. Genetically determined metabolic defect, manifesting itself as decreased resistance of OXYS rats towards oxidative stress, leads to changes in their organism which may be regarded as accelerated ageing syndrome. In particular, reduced bone mineral density in OXYS rats, as compared to Wistar rats, is observed. Such changes are also observed in osteoporosis in humans that allows us to consider these animals as an adequate model of senile osteoporosis in humans.
Wistar and OXYS rats,—control rats and those who received two courses of SkQ1 (50 nanomoles per kg of body weight per day), were studied. The animals received the preparation since 1.5 and 4 months of age for 45 days. At the age of 6 months, bone tissue state was studied by X-ray densitometry.

OXYS male rats = assay: Sexual motivation model: male near receptive female behind a barrier; settings: one year old OXYS males
Text: […] To do this, an experimental model of sexual arousal was used—males were kept under conditions allowing them to see the receptive female, perceive the female's smell, but excluding physical contact with the female. Under these conditions, male rats and male mice show increase in blood testosterone level and typical motivational behavior.

OXYS rats [4] = assay: Morris water maze test of learning ability; settings: 16-month-old OXYS rats, 250 nanomoles per kg of body weight since 1.5 months
Text: The Morris water maze test is actively used for studies on learning and long-term spatial memory in animals. The method of Morris allows to evaluate strategies for behavior, dynamics of skill formation, to detect even weak differences in behavior. This test evaluates the ability of an animal, swimming in the opaque water of the pool and looking at the signs on its sides, to learn how to find the invisible, hidden platform under water, no matter from what point of the perimeter of the pool the animal was released.
In subsequent experiments, 4 groups of 16-month-old animals: control Wistar and OXYS rats, and groups received the preparation since 1.5 months at a dose of 250 nanomoles per kg of body weight, were used. A latent period of time spent by rats to find the platform depended only on the genotype—it took longer in OXYS rats than in Wistar rats—OXYS rats coped worse with the task.

rats = assay: Behavioral tests "open field" and "elevated cruciform maze"

CC1=C(C)C(=O)C(CCCCCCCCCC[P+](c2ccccc2)(c2ccccc2)c2ccccc2)=CC1=O [SkQ1]
animals remained alive in 707 days of the experiment (SHR mice; first of three test groups (dose not given)): 36%
animals remained alive in 707 days of the experiment (SHR mice; second of three test groups (dose not given)): 28%
animals remained alive in 707 days of the experiment (SHR mice; third of three test groups (dose not given)): 24%
life span of SHR mice (SHR mice; optimal doses (1 nanomole per animal per day), versus control): much longer life span
frequency of regular estrous cycles (female SHR mice; 2nd cohort, 15-month-old female SHR mice, 0.01 nanomoles per day, control 67%): 94%
age-related changes in estrous function (female SHR mice; female SHR mice received SkQ1, compared to the control group): less pronounced age-related changes in estrous function
fraction of individuals aged 70 days and older (Drosophila melanogaster; 1.85 nM SkQ1, control 0.18, P=0.0056): 0.48
average life expectancy (Drosophila melanogaster; 1.85 nM SkQ1 on medium surface, 25° C., control 58 days, P=0.0012): 66 days
life span of p53 (-/-) mice (p53 (-/-) mice): dramatic increase of the life span
vision after 10 days of the treatment [1]: the pupil began to respond to light, the cat began to play with the ball and see even small objects
vision after 21 days of the treatment [1]: vision retained
vision after 90 days of the treatment ([2]; 20 years, instillation of 250 nM SkQ1 solution daily, 2 times a day since 3rd month): The vision was restored
growth of new blood vessels from the optic disk ([2]; after 90 days of the treatment with 250 nM SkQ1 instillation): 40
bone mineral density of femur and tibia (OXYS rats [3]): reliably increased
total mass of bone tissue (OXYS rats [3]): reliably increased
time spent by a male rat near a female rat separated by a barrier (OXYS male rats; 50 nanomoles of SkQ1, versus control males): reliably increased
time spent by a male rat near a female rat separated by a barrier (OXYS male rats; 250 nanomoles of SkQ1, versus control males): reliably increased
ability to learn (latent period to find the platform in the Morris maze) (OXYS rats [4]): improved the ability of OXYS rats to learn
stress-protective effect (rats; Wistar rats): clear stress-protective effect
search and exploratory activity of rats (rats; open field and elevated cruciform maze): positive effect
